{"source": "patent US11634381B2", "about": "“RUNX2 transcription factor inhibitors and uses thereof” (University of Maryland, Baltimore, priority 2015, dated 2023)", "key": {"[1]": {"test_system": "Br-001 tumor", "test": "TNBC-PDX Br-001 model", "assay_type": "in vivo, nude mice", "details": "10 mg/kg", "experimental": "For the PDX models, Br-001 tumor fragments derived from a patient with TNBC (University of Maryland, Translational Core Facility) were inoculated subcutaneously in female NOD scid gamma (NSG) mice (P1). After P1 tumors were grown, tumors were excised, fragmented and inoculated to a new group of NSG mice (P2). After P2 tumors were grown, they were excised, fragmented, and inoculated into nude mice (P3). When the size of the tumors reached 200˜250 mm^3, mice were randomized into two groups, and received i.p. injection of vehicle or compound 1 (10 mg/kg) twice a week for 11 days."}, "[2]": {"test_system": "RUNX2", "test": "Western blot of RUNX2, RUNX1, CBF-β", "assay_type": "cell-based, human", "details": "for CBF-β levels: MDA-231, MDA-468 and MCF7 cells", "experimental": "Whole cell lysates extracted in RIPA buffer (Upstate) were separated on 4-12% gradient SDS-PAGE and transferred to nitrocellulose membrane. The blots were incubated with specific antibodies for each protein overnight at 4° C. After antibody washing, the blots were reacted with their respective secondary antibody and detected with enhanced chemiluminescence reagents (Millipore) according to the supplier's protocol. Antibodies for proteins were purchased as below. RUNX1, RUNX2, CBF-β, ubiquitin and caspase-3 (Cell Signaling Technologies), S451-p-RUNX2 (Bioss Gentaur, Belgium), RUNX3 and Glut-1 (Millipore, Calif.), β-actin and RUNX2 antibody for IHC (Sigma-Aldrich), and Ki-67 for IHC (Bethyl Laboratories, Inc, TX)."}, "[3]": {"test_system": "TAZ", "test": "Nuclear TAZ levels by Western blot", "assay_type": "cell-based, human", "experimental": "(§1) MCF7 cells were grown to subconfluence in the presence or absence of doxycycline for 72 hr in full media as described above. Cells were then treated in minimal DMEM (Sigma, D5030) containing 0.1% BSA, 1% L-glutamine, 2% Tet-Approved FBS, and 1 mM glucose for 16 hours followed by treatment with 2 ng/mL TGFβ (R&D Systems, 240-B-002) for 48 hours in the presence or absence of EGTA to examine sE-Cad expression levels, TAZ localization, and HER2 expression levels. Cells were washed with PBS and scraped from plates. Cytoplasmic and nuclear lysates were obtained using the Low/High Salt extraction method. Cytoplasmic extracts were obtained by resuspending cells in NP40 containing Hypotonic Buffer (10 mM HEPES pH 7.4, 1.5 mM MgCl2, 10 mM KCI, 0.5% NP40) followed by a 30 min incubation on ice and centrifiugation. Nuclear extracts were obtained by resuspending the nuclear pellet in an equal volume of low salt buffer (10 mM HEPES, 25% glycerol, 1.5 mM MgCl2, 20 mM KCI, 0.2 mM EDTA) followed by high salt buffer (10 mM HEPES, 25% glycerol, 1.5 mM MgCl2, 800 mM KCl, 0.2 mM EDTA) followed by vortexing, 30 min incubation on ice, another vortex, and centrifugation. Samples were resolved on 4-12% Bis-Tris polyacrylamide gradient gels (Invitrogen) and transferred to PVDF membranes (Millipore). Membranes were probed with antibodies listed below followed by development with enhanced ECL (Millipore). […] Protein levels were normalized to actin and quantified using NIH Image-J software.\n(§2) MCF7 Tet.OFF cells were pretreated in the absence or presence of doxycycline for 3 days. […] Nuclear and cytoplasmic extracts were obtained using High/Low salt extraction method and protein levels analyzed by Western blot (see above)."}, "[4]": {"test_system": "mammary tumors", "test": "MMTV-PyMT transgenic mouse model", "assay_type": "in vivo, MMTV-PyMT mice", "experimental": "For the MMTV polyoma middle T antigen (PyMT) mouse model, female mice were purchased from Jackson Laboratory. As mice developed first palpable mammary tumors after 5 weeks of age, mice were randomly assigned to 4 treatment groups at 6 weeks of age and received i.p. injections of compound 1 (1, 5 and 20 mg/kg/group) or equivalent volumes of vehicle (10% DMSO/90% PBS) (200 μl) twice a week. Palpable tumors were monitored every 1 to 2 days until 12 weeks of age to determine tumor incidence (number of tumors per mouse) and onset (the age of palpable tumors). Tumor weight was quantified at the final day after mice were euthanized and tumors were excised. Tumor volume [(length×width^2)/2] was measured by caliper."}, "[5]": {"test_system": "MCF10A non-malignant mammary epithelial cells", "test": "Mammosphere formation of non-malignant cells", "assay_type": "cell-based, human"}, "[6]": {"test_system": "sE-Cad", "test": "sE-Cad production by Western blot", "assay_type": "cell-based, human", "experimental": "as §1, with “(Millipore).” for “(Millipore). Membranes were probed with antibodies listed below followed by development with enhanced ECL (Millipore).”\nTo assay for sE-Cad levels, MCF7 Tet.OFF cells were grown in the absence or presence of doxycycline for 3 days and then transfected with TAZ siRNA #1 using Lipofectamine-2000. […] After 72 hours, nuclear and cytoplasmic extracts were obtained using the High/Low salt extraction method described above and analyzed for sE-Cad, TAZ, and RUNX2. Protein levels were normalized to actin and quantified using NIH Image-J software.\nas §2"}}}
{"smiles": "O=C(O)C1C2C=CC(C2)C1C(=O)Nc1ccc(Cl)c(Cl)c1", "note": "(centres unmarked) [compound 1, 3-(N-(3,4-dichlorophenyl)carbamoyl)-5-norbornene-2-carboxylic acid]", "values": [{"measurement": "Ki-67 expression", "setting": "[1]; i.p.", "value": "markedly reduced"}, {"measurement": "tumor volume", "setting": "[1]; i.p., 11 days", "value": "significant decrease"}, {"measurement": "body weight and general health", "setting": "[1]; nude mice", "value": "did not significantly decrease body weight"}, {"measurement": "CBF-β levels", "setting": "[2]; 6 hrs", "value": "increased"}, {"measurement": "CBF-β levels", "setting": "[2]; after 24 hrs", "value": "decreased"}, {"measurement": "mRNA and protein expression of RUNX2", "setting": "[2]; T47D-RUNX2 and MCF7-RUNX2 cells, 50 μM, 72 hrs", "value": "further enhanced"}, {"measurement": "CBF-β level", "setting": "[2]; ectopic RUNX2 T47D and MCF7 cells, 50 μM, 72 hrs", "value": "reduced"}, {"measurement": "stability of RUNX1 or of CBF-β", "setting": "[2]; in the presence of CHX", "value": "not increased"}, {"measurement": "RUNX1 protein levels", "setting": "[2]; most BC cells", "value": "not altered"}, {"measurement": "reduction in nuclear TAZ levels compared to vehicle", "setting": "[3]; HCC1428 cells expressing endogenous RUNX2", "value": 80, "unit": "%"}, {"measurement": "nuclear TAZ levels", "setting": "[3]; RUNX2 negative cells (doxycycline +), over 72 hr", "value": "no affect"}, {"measurement": "TAZ nuclear levels", "setting": "[3]; RUNX2 positive MCF7 cells (doxycycline -), 50 μM, within 24 hr", "value": "lowered"}, {"measurement": "tumor incidence per mouse at the final day (mean±SEM)", "setting": "[4]; 1 mg/Kg", "value": "4.14±0.88"}, {"measurement": "tumor onset, Frequency of mode", "setting": "[4]; 1 mg/kg", "value": 8}, {"measurement": "tumor onset, Mode", "setting": "[4]; 1 mg/kg", "value": 43}, {"measurement": "tumor onset, range", "setting": "[4]; 1 mg/kg", "value": "15˜45"}, {"measurement": "mice with less than 3 tumors", "setting": "[4]; 5 mg/Kg", "value": 40, "unit": "%"}, {"measurement": "tumor incidence per mouse at the final day (mean±SEM)", "setting": "[4]; 5 mg/Kg", "value": "3.05±2.57"}, {"measurement": "tumor onset, Frequency of mode", "setting": "[4]; 5 mg/kg", "value": 11}, {"measurement": "tumor onset, Mode", "setting": "[4]; 5 mg/kg", "value": 43}, {"measurement": "tumor onset, range", "setting": "[4]; 5 mg/kg", "value": "1˜45"}, {"measurement": "fraction of mice with over 6 tumors", "setting": "[4]; 20 mg/Kg", "value": "no mice"}, {"measurement": "mice with less than 3 tumors", "setting": "[4]; 20 mg/Kg", "value": 55, "unit": "%"}, {"measurement": "tumor incidence per mouse at the final day (mean±SEM)", "setting": "[4]; 20 mg/Kg", "value": "2.57±0.72"}, {"measurement": "tumor onset, Frequency of mode", "setting": "[4]; 20 mg/kg", "value": 9}, {"measurement": "tumor onset, Mode", "setting": "[4]; 20 mg/kg", "value": 40}, {"measurement": "tumor onset, range", "setting": "[4]; 20 mg/kg", "value": "22˜45"}, {"measurement": "tumor weight", "setting": "[4]; 1, 5, 20 mg/Kg", "value": "reduction"}, {"measurement": "staining of Ki67 in tumor sections versus control mice", "setting": "[4]; IHC", "value": "much weaker"}, {"measurement": "onset of the tumors", "setting": "[4]; i.p., up to 20 mg/kg, 45 days", "value": "significantly delayed"}, {"measurement": "body weight and general health", "setting": "[4]; up to 20 mg/kg, MMTV-PyMT mice", "value": "did not significantly decrease body weight"}, {"measurement": "mammosphere formation", "setting": "[5]", "value": "did not have a significant influence"}, {"measurement": "decrease in sE-Cad production", "setting": "[6]; RUNX2 negative cells (doxycycline+)", "value": 2, "unit": "fold"}, {"measurement": "decline of sE-Cad levels", "setting": "[6]; RUNX2 positive cells, 50 μM, by 72 hr", "value": "~20", "unit": "fold"}, {"measurement": "increase of sE-Cad production", "setting": "[6]; RUNX2 positive cells, 50 μM, first 24 hr", "value": 3.5, "unit": "fold"}]}
